The record followed here is BindingDB's records for patent US11787810 (Merck Sharp & Dohme, 2023).

The test deals with T1, Diacylglycerol O-acyltransferase 2 (Homo sapiens, UniProt Q96PD7).
T1 sequence (Q96PD7 whole entry): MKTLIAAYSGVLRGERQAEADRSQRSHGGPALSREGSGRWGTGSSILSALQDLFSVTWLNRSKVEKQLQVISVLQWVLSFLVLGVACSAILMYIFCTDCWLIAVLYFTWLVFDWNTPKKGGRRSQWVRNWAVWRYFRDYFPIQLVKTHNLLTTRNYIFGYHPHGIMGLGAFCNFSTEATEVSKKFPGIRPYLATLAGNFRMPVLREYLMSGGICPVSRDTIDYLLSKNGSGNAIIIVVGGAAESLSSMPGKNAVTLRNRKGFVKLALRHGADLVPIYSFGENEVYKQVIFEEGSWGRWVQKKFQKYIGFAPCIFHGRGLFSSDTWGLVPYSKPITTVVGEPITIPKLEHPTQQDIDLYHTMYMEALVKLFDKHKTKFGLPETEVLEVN
As to the kind of experiment: DGAT2 Enzymatic Activity Assay. How it is done: DGAT2 activity was determined by measuring the amount of enzymatic product 13C18-triolein (13C-1,2,3-Tri(cis-9-octadecenoyl)glycerol) using the membrane prep mentioned above. The assay was carried out in ABgene 384-well assay plates in a final volume of 25 μL at rt. The assay mixture contained the following: assay buffer (100 mM Tris Cl, pH 7.0, 20 mM MgCl2, 5% ethanol), 25 μM of diolein, 5 μM of 13C oleoyl-CoA and 8 ng/μL of DGAT2 membrane.
In general, IC50 refers to the point on the concentration scale where inhibition reaches its midpoint. Low readings indicate greater potency in that assay, high ones weaker potency in that assay. For the compound `CC(C)n1nc(-c2cccc(OC(F)F)c2)c2ncc(C(=O)NC3(C)CCS(=O)(=O)CC3)cc21` [US11787810, Example 32], half-maximal inhibition (IC50) was put at 4.3 nM.
`CC(C)n1nc(-c2cccc(OCC#N)c2)c2ncc(C(=O)NC3(C)CS(=O)(=O)C3)cc21` [US11787810, Example 103] had an IC50 of 142 nM.
For `CC(=O)N1CC(n2nc(-c3cccc(OC(F)F)c3)c3ncc(C(=O)NC4(C)CS(=O)(=O)C4)cc32)C1` [US11787810, Example 135], the 50% inhibitory concentration (IC50) was 7940 nM.
